Values quoted from earlier work in patent publication US7189722B2, “Aryl spirohydantoin CGRP receptor antagonists” (Merck & Co., Inc., priority 2003, dated 2007).
Read-outs that look alike come from different tables or passages of the source. Ends that are not written are not given here.

Legend:
[1] = test system: middle meningeal artery diameter; settings: rats, electrical stimulation of the dura mater, prior administration (Williamson et al. 1997)
[2] = test system: facial blood flow; settings: rat, trigeminal ganglion stimulation (Escott et al. 1995)
[3] = test system: facial blood flow; settings: marmoset, electrical stimulation of the trigeminal ganglion (Doods et al. 2000)

Compound	effect on increase of middle meningeal artery diameter [1]	effect on increase of facial blood flow [2]	effect on increase of facial blood flow [3]
CGRP(8-37): a peptide CGRP antagonist (VTHRLAGLLSRSGGVVKNNFVPTNVGSKAF; ends and bridges not checked; UniProt P06881 90-119, looked up, fragment)	blocked	inhibited	
NCCCC[C@H](NC(=O)[C@@H](Cc1cc(Br)c(O)c(Br)c1)NC(=O)N1CCC(N2Cc3ccccc3NC2=O)CC1)C(=O)N1CCN(c2ccncc2)CC1 [BIBN4096BS]			blocked
